# Reference: PubChem BioAssay (NCI)
#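 In this assay, cells in 96-well plates receive the compound at five concentrations for 48 hours. Endpoints are linearly interpolated between the surrounding concentrations. TGI: total growth inhibition.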
# Assays:
# Test in all cases: NCI anticancer screen, dose series, 48 h
# UACC-257 melanoma = test system: UACC-257 melanoma
# KM12 colon = test system: KM12 colon
# SK-MEL-2 melanoma = test system: SK-MEL-2 melanoma
# TK-10 renal = test system: TK-10 renal
# OVCAR-4 ovarian = test system: OVCAR-4 ovarian
# A498 renal = test system: A498 renal
# HL-60(TB) leukemia = test system: HL-60(TB) leukemia
# U251 CNS = test system: U251 CNS
# HCC-2998 colon = test system: HCC-2998 colon
# DU-145 prostate = test system: DU-145 prostate
# UACC-62 melanoma = test system: UACC-62 melanoma
# SNB-75 CNS = test system: SNB-75 CNS
# CAKI-1 renal = test system: CAKI-1 renal
# HCT-116 colon = test system: HCT-116 colon
# MDA-MB-435 = test system: MDA-MB-435
# ACHN renal = test system: ACHN renal
# SK-OV-3 ovarian = test system: SK-OV-3 ovarian
# SF-295 CNS = test system: SF-295 CNS
# OVCAR-5 ovarian = test system: OVCAR-5 ovarian
# MCF7 breast = test system: MCF7 breast
# M14 melanoma = test system: M14 melanoma
# SNB-19 CNS = test system: SNB-19 CNS
# MOLT-4 leukemia = test system: MOLT-4 leukemia
# IGROV1 ovarian = test system: IGROV1 ovarian
# CCRF-CEM leukemia = test system: CCRF-CEM leukemia
# MDA-MB-231 breast = test system: MDA-MB-231 breast
# HT29 colon = test system: HT29 colon
# EKVX NSCLC = test system: EKVX NSCLC
# LOX IMVI melanoma = test system: LOX IMVI melanoma
# UO-31 renal = test system: UO-31 renal
# SK-MEL-5 melanoma = test system: SK-MEL-5 melanoma
# OVCAR-8 ovarian = test system: OVCAR-8 ovarian
# SK-MEL-28 melanoma = test system: SK-MEL-28 melanoma
# NCI-H226 lung = test system: NCI-H226 lung
# NCI-H23 lung = test system: NCI-H23 lung
# NCI-H522 lung = test system: NCI-H522 lung
# BT-549 breast = test system: BT-549 breast
# COLO 205 colon = test system: COLO 205 colon
# MDA-N = test system: MDA-N
# NCI/ADR-RES ovarian = test system: NCI/ADR-RES ovarian
# PC-3 prostate = test system: PC-3 prostate
# T-47D breast = test system: T-47D breast
# SF-268 CNS = test system: SF-268 CNS
# HOP-62 NSCLC = test system: HOP-62 NSCLC
# SN12C renal = test system: SN12C renal
# RPMI-8226 leukemia = test system: RPMI-8226 leukemia
# HOP-92 NSCLC = test system: HOP-92 NSCLC
# SR leukemia = test system: SR leukemia
# HS 578T breast = test system: HS 578T breast
# A549 NSCLC = test system: A549 NSCLC
# HCT-15 colon = test system: HCT-15 colon
# 786-0 renal = test system: 786-0 renal
# K-562 leukemia = test system: K-562 leukemia
# SW-620 colon = test system: SW-620 colon
# RXF 393 renal = test system: RXF 393 renal
# NCI-H460 lung = test system: NCI-H460 lung
# MALME-3M melanoma = test system: MALME-3M melanoma
# OVCAR-3 ovarian = test system: OVCAR-3 ovarian
smiles,measurement,setting,value
COc1cccc(N2C(=O)/C(=C\c3ccccc3)SC2c2cc(OC)c(OC)c(OC)c2)c1 (stereo unspecified),TGI,UACC-257 melanoma,> 100 µM
same,TGI,KM12 colon,> 100 µM
same,TGI,SK-MEL-2 melanoma,> 100 µM
same,TGI,TK-10 renal,> 100 µM
same,TGI,OVCAR-4 ovarian,> 100 µM
same,TGI,A498 renal,67.7 µM
same,TGI,HL-60(TB) leukemia,> 100 µM
same,TGI,U251 CNS,> 100 µM
same,TGI,HCC-2998 colon,> 100 µM
same,TGI,DU-145 prostate,> 100 µM
same,TGI,UACC-62 melanoma,> 100 µM
same,TGI,SNB-75 CNS,57.3 µM
same,TGI,CAKI-1 renal,> 100 µM
same,TGI,HCT-116 colon,> 100 µM
same,TGI,MDA-MB-435,> 100 µM
same,TGI,ACHN renal,> 100 µM
same,TGI,SK-OV-3 ovarian,> 100 µM
same,TGI,SF-295 CNS,> 100 µM
same,TGI,OVCAR-5 ovarian,> 100 µM
same,TGI,MCF7 breast,> 100 µM
same,TGI,M14 melanoma,> 100 µM
same,TGI,SNB-19 CNS,> 100 µM
same,TGI,MOLT-4 leukemia,> 100 µM
same,TGI,IGROV1 ovarian,> 100 µM
same,TGI,CCRF-CEM leukemia,> 100 µM
same,TGI,MDA-MB-231 breast,> 100 µM
same,TGI,HT29 colon,> 100 µM
same,TGI,EKVX NSCLC,> 100 µM
same,TGI,LOX IMVI melanoma,> 100 µM
same,TGI,UO-31 renal,> 100 µM
same,TGI,SK-MEL-5 melanoma,> 100 µM
same,TGI,OVCAR-8 ovarian,> 100 µM
same,TGI,SK-MEL-28 melanoma,> 100 µM
same,TGI,NCI-H226 lung,> 100 µM
same,TGI,NCI-H23 lung,> 100 µM
same,TGI,NCI-H522 lung,> 100 µM
same,TGI,BT-549 breast,> 100 µM
same,TGI,COLO 205 colon,> 100 µM
same,TGI,MDA-N,40.5 µM
same,TGI,NCI/ADR-RES ovarian,> 100 µM
same,TGI,PC-3 prostate,> 100 µM
same,TGI,T-47D breast,94.3 µM
same,TGI,SF-268 CNS,> 100 µM
same,TGI,HOP-62 NSCLC,> 100 µM
same,TGI,SN12C renal,> 100 µM
same,TGI,RPMI-8226 leukemia,> 100 µM
same,TGI,HOP-92 NSCLC,> 100 µM
same,TGI,SR leukemia,> 100 µM
same,TGI,HS 578T breast,> 100 µM
same,TGI,A549 NSCLC,> 100 µM
same,TGI,HCT-15 colon,> 100 µM
same,TGI,786-0 renal,> 100 µM
same,TGI,K-562 leukemia,> 100 µM
O=C1C=CC2(O)OCCN(CCO)C2=C1 (stereo unspecified) (tested in a mixture with another compound),TGI,UACC-257 melanoma,> 100 µM
same,TGI,KM12 colon,> 100 µM
same,TGI,SK-MEL-2 melanoma,> 100 µM
same,TGI,TK-10 renal,> 100 µM
same,TGI,OVCAR-4 ovarian,> 100 µM
same,TGI,A498 renal,> 100 µM
same,TGI,HL-60(TB) leukemia,> 100 µM
same,TGI,U251 CNS,> 100 µM
same,TGI,HCC-2998 colon,> 100 µM
same,TGI,DU-145 prostate,> 100 µM
same,TGI,SW-620 colon,> 100 µM
same,TGI,UACC-62 melanoma,> 100 µM
same,TGI,RXF 393 renal,> 100 µM
same,TGI,SNB-75 CNS,> 100 µM
same,TGI,CAKI-1 renal,> 100 µM
same,TGI,HCT-116 colon,> 100 µM
same,TGI,MDA-MB-435,> 100 µM
same,TGI,ACHN renal,> 100 µM
same,TGI,SK-OV-3 ovarian,> 100 µM
same,TGI,SF-295 CNS,> 100 µM
same,TGI,OVCAR-5 ovarian,> 100 µM
same,TGI,NCI-H460 lung,> 100 µM
same,TGI,MCF7 breast,> 100 µM
same,TGI,M14 melanoma,> 100 µM
same,TGI,SNB-19 CNS,> 100 µM
same,TGI,MOLT-4 leukemia,> 100 µM
same,TGI,IGROV1 ovarian,> 100 µM
same,TGI,CCRF-CEM leukemia,> 100 µM
same,TGI,MDA-MB-231 breast,> 100 µM
same,TGI,HT29 colon,> 100 µM
same,TGI,EKVX NSCLC,> 100 µM
same,TGI,LOX IMVI melanoma,> 100 µM
same,TGI,UO-31 renal,> 100 µM
same,TGI,SK-MEL-5 melanoma,> 100 µM
same,TGI,OVCAR-8 ovarian,> 100 µM
same,TGI,SK-MEL-28 melanoma,> 100 µM
same,TGI,NCI-H226 lung,> 100 µM
same,TGI,MALME-3M melanoma,> 100 µM
same,TGI,NCI-H23 lung,> 100 µM
same,TGI,NCI-H522 lung,> 100 µM
same,TGI,BT-549 breast,> 100 µM
same,TGI,COLO 205 colon,> 100 µM
same,TGI,MDA-N,> 100 µM
same,TGI,NCI/ADR-RES ovarian,> 100 µM
same,TGI,PC-3 prostate,> 100 µM
same,TGI,T-47D breast,> 100 µM
same,TGI,SF-268 CNS,> 100 µM
same,TGI,HOP-62 NSCLC,> 100 µM
same,TGI,SN12C renal,> 100 µM
same,TGI,RPMI-8226 leukemia,> 100 µM
same,TGI,HOP-92 NSCLC,> 100 µM
same,TGI,SR leukemia,> 100 µM
same,TGI,OVCAR-3 ovarian,> 100 µM
same,TGI,HS 578T breast,> 100 µM
same,TGI,A549 NSCLC,> 100 µM
same,TGI,HCT-15 colon,> 100 µM
same,TGI,786-0 renal,> 100 µM
same,TGI,K-562 leukemia,> 100 µM
